According to patent US9260756B2, “Esophageal microRNA expression profiles in eosinophilic esophagitis” (CHILDREN'S HOSPITAL MEDICAL CENTER, priority 2012, dated 2016):

Columns and labels:
miR-375 = experiment: qRT-PCR of miR-375 in esophageal biopsies of EE patients; assay type: in vivo, human; conditions: EE patients that responded to therapy, qPCR normalized to U6
Excerpt: Patients were selected without regard to age, race, or sex. Normal patients presented to the clinic with symptoms consistent with gastroesophageal reflux disease or EE, but the endoscopic and histologic findings for these patients were normal. […] The active chronic esophagitis patients had eosinophil counts of 1-15 per 400×hpf in the esophageal biopsies. Patients with systemic or swallowed topical glucocorticoid use were excluded from the selection of active EE or active chronic esophagitis patients.
Levels of miRNA expression were measured quantitatively by using the TaqMan MicroRNA Assays (Applied Biosystems), following the manufacturer's protocol. The expression levels were normalized to the U6 endogenous control. Relative expression was calculated as previously described (Lu, T. et al. J. Immunol. 182:4994-5002 (2009)).

[1] = test system: bone marrow-derived eosinophils; experiment: Cell growth after picropodophyllin treatment, cell counting using a hemacytometer; assay type: cell-based, mouse; conditions: for growth of miR-223+/+ and miR-223-/- eosinophil cultures: 2 μM picropodophyllin from day 8, counted day 10 and day 12, vs DMSO
Experimental: Bone marrow cells were collected from femurs and tibia of the mice, and the stem/progenitor cell-enriched low-density fraction was isolated by gradient centrifugation using the Histopaque 1083 (Sigma), according to the manufacturer's protocol. The low density fraction of bone marrow cells were cultured in IMDM with 10% FBS, 100 U/ml penicillin, and 100 μg/ml streptomycin supplemented with 100 ng/mL stem cell factor and 100 ng/mL FLT-3 ligand (Peprotech) from day 0 to day 4.
The stem cell factor and FLT-3 ligand were replaced with 10 ng/mL IL-5 on day 4, and the cells were cultured for an additional 10-12 days in the presence of IL-5 (Dyer, K. et al. J. Immunol. 181:4004-9 (2008)). The culture media was changed every other day, and cells were counted and concentration was adjusted to 1×10^6/mL during each media change. Eosinophil maturity was assessed by FACS staining for CCR3 and Siglec-F and/or Diff-Quik (Fisher Scientific) staining of cytospin preparations. Eosinophil progenitor growth was assessed by counting the cells every 2 days using a hemacytometer.
(§1) Bone marrow-derived eosinophils were re-suspended at a concentration of 1×10^6 cells/ml and treated with DMSO or 2 μM of picropodophyllin at day 8 (Yin, S. et al. Neuro. Oncol. 12:19-27 (2010)). Cell growth was determined by cell counting using a hemacytometer on day 10 and day 12. Cell lysates were collected on day 10, and levels of IGF1R expression were determined by western blot.

IGF1R = molecular target: T1, IGF1R (Mus musculus, UniProt Q60751); experiment: IGF1R expression by western blot after picropodophyllin treatment; assay type: cell-based; conditions: day 10, after 2-day treatment with 2 μM picropodophyllin, both miR-223+/+ and miR-223-/- cultures
T1 construct: endogenous in cells; host or cells: bone marrow-derived eosinophil (progenitor) cultures from miR-223+/+ and miR-223-/- mice
Experimental: Cells were rapidly washed in phosphate buffered saline and lysed in M-PER mammalian protein extraction reagent (Pierce, Rockford, Ill.), according to the manufacturer's protocol. Protease inhibitor cocktails (Pierce) and phosphatase inhibitor cocktails (Pierce) were added to the M-PER protein extraction reagent immediately before lysis. Western blot analysis was performed, as described in a previous protocol (Lim, E. et al. J. Biol. Chem. 286:13193-204 (2011)). The assay was conducted using an anti-IGF1R antibody (Cell Signaling Technology, Danvers, Mass.) and an anti-GAPDH antibody (Abcam, Cambridge, UK).
as §1

[2] = test system: human esophageal epithelial cells; experiment: miRNA expression in IL-13-stimulated human esophageal epithelial cells (microarray, qPCR); assay type: cell-based; conditions: after 24 and 48 hours of IL-13 stimulation, normalized to U6
Experimental: (§2) Human esophageal epithelial cells derived from human patient biopsies were cultured, as described in a previous protocol (Blanchard, C. et al. J. Allergy Clin. Immunol. 120:1292-300 (2007)). The human bronchial epithelial cell line HBEC was cultured as previously described (Ramirez, R. et al. Cancer Res. 64:9027-34 (2004)). The normal human bronchial epithelial cells (Lonza, Basel, Switzerland) were cultured, as described in a previous protocol (Kariyawasam, H. et al. J. Allergy Clin. Immunol. 124:454-462 (2009)). The U937 monocytes and Jurkat T cells were cultured in RPMI 1640 medium (Fisher Scientific) supplemented with 10% FBS, 100 U/mL penicillin, and 100 μg/ml streptomycin. […]
(§3) Human esophageal epithelial cells and bronchial epithelial cells were stimulated with media or 100 ng/mL IL-13 for 24 hours. […] RNA quality was assessed using the 2100 bioanalyzer (Agilent Technologies), and only samples with RNA integrity number >8 were used. […]
(§4) The miRNAs differentially regulated between unstimulated and IL-13 stimulated samples were identified by normalizing the expression data to the average of two endogenous control probes, namely RNU44 and RNU48, then filtered on cycle threshold values <35 and at least a 2-fold change between unstimulated and IL-13-stimulated samples. Statistical significance was determined at p<0.05 with Benjamini Hochberg false discovery rate correction. […]

[3] = test system: human bronchial epithelial cells; experiment: miRNA expression in IL-13-stimulated human bronchial epithelial cells (microarray, qPCR); assay type: cell-based; conditions: normal human bronchial epithelial cells, after 24 and 48 hours of IL-13 stimulation, normalized to U6
Experimental: as §2, §3, §4

T1 sequence (Q60751 31-1373): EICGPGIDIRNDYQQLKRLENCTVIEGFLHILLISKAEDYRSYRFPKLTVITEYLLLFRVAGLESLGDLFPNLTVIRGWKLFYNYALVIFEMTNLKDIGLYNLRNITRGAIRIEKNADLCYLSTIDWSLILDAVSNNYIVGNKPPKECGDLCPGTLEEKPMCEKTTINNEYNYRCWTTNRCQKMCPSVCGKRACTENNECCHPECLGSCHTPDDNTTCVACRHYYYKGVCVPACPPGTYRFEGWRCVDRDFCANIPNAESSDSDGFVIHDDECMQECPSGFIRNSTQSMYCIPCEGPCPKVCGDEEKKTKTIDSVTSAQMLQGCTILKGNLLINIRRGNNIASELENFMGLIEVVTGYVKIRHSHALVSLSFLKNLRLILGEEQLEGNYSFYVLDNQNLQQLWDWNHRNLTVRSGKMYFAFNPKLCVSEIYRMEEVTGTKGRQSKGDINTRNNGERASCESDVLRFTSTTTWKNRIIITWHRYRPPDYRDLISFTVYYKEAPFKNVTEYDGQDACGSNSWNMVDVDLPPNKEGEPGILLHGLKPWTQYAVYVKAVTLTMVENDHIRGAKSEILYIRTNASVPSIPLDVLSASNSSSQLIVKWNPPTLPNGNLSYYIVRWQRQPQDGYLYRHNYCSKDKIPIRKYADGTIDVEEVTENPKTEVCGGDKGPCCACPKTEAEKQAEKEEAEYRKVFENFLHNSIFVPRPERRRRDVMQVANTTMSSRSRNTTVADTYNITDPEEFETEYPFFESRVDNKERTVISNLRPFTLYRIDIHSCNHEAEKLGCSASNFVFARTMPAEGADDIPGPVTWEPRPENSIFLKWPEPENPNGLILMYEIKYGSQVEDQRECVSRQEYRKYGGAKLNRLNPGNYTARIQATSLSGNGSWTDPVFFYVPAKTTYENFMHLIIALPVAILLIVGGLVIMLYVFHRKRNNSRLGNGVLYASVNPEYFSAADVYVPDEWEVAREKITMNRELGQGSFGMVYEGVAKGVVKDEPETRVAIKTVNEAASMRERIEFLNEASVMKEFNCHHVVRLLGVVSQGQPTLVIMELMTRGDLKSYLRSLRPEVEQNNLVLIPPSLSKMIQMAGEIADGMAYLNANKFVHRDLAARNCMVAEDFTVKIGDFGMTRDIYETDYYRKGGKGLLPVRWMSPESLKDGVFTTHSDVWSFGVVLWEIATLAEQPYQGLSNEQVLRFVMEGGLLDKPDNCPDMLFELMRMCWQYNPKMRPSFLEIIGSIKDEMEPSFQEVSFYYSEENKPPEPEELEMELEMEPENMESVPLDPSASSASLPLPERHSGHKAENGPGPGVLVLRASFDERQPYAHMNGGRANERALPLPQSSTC

In the case of CCC(=O)O[C@]1(C(=O)SCF)[C@H](C)C[C@H]2[C@@H]3C[C@H](F)C4=CC(=O)C=C[C@]4(C)[C@@]3(F)[C@@H](O)C[C@@]21C [fluticasone propionate], the “miR-375 levels in esophageal tissue” value (miR-375) is reported as “comparable to normal healthy controls”.
With COc1cc([C@@H]2c3cc4c(cc3[C@H](O)[C@H]3COC(=O)[C@@H]23)OCO4)cc(OC)c1OC [picropodophyllin] the “growth of miR-223+/+ and miR-223-/- eosinophil cultures” value [1] was “inhibited”, the “growth of miR-223+/+ and miR-223-/- eosinophil cultures” value ([1]; listed as pricopodphyllin) was “inhibits” and the “increased proliferation seen in miR-223-/- cultures” value ([1]; 2 μM picropodophyllin, miR-223-/- vs miR-223+/+ cultures) was “completely reversing”. The “IGF1 receptor expression level” value (IGF1R) was “nearly complete down-regulation”.
“IL-13: cytokine used at 100 ng/mL to stimulate human esophageal and bronchial epithelial cells” was tested, and the miR-375 expression [2] was “down-regulated” and the miR-375 expression [3] was “down-regulated”.
